# Data: patent US20250002970A1, “A[…] LABELING FOR DETECTION OF BACTERIAL VIABILITY, GROWTH AND ANTIBIOTIC SUSCEPTIBILITY” (University of Massachusetts, priority 2021, published 2025)
# Tested on: S. aureus
# Experiment: Sandwich ELISA readout of growth-dependent metabolic labeling (biotin-D-lysine probe incorporation) +/- antibiotic
# Assay type: cell-based, Staphylococcus aureus
# Settings: S. aureus +/- vancomycin; FIG. 4
# Protocol: FIG. 4. ELISA can be used as a rapid readout for antibiotic susceptibility. S. aureus was incubated+/−antibiotic for 20 min then with cell envelope probe for an additional 10 min. Probe incorporation was quantitated by sandwich ELISA (absorbance, OD450).
# Bacterial strains and growth conditions. Staphylococcus aureus was grown in brain heart infusion broth (BHI; BD BBL, Sparks, MD.). Escherichia coli K-12 was grown in Luria Bertani broth (LB; Apex Research Products, El Cajon, CA). All bacteria were initially grown by shaking at 37° C. overnight.
# Cell wall labeling. Bacterial cultures were back diluted in their respective media and grown at 37° C. until the mid-log phase (OD600=0.3 for S. aureus; OD600=0.35 for E. coli); for concentration dependency experiments the starting OD600 for each sample varied. Where appropriate, cultures were treated with freshly prepared ampicillin (100 μg/mL; Fisher Bioreagents, Fair Lawn, NJ) or vancomycin (100 μg/mL; Alfa Aesar, Ward Hill, MA) and incubated on a shaker at 37° C. for 90 minutes.
# Growing bacteria were labeled with biotin D-lysine (Chem-Impex International, Wood Dale, IL; reagent was deprotected first). Unless otherwise indicated, they were labeled with 1 mM biotin-D-lysine shaking at 37° C. for 20 (S. aureus) or 30 (E. coli) minutes. […]
# ELISA experiment. […] The absorbance was measured at 450 nm with a BioTek Plate Reader.
smiles,measurement,value
CN[C@H](CC(C)C)C(=O)N[C@H]1C(=O)N[C@@H](CC(N)=O)C(=O)N[C@H]2C(=O)N[C@H]3C(=O)N[C@H](C(=O)N[C@H](C(=O)O)c4cc(O)cc(O)c4-c4cc3ccc4O)[C@H](O)c3ccc(c(Cl)c3)Oc3cc2cc(c3O[C@@H]2O[C@H](CO)[C@@H](O)[C@H](O)[C@H]2O[C@H]2C[C@](C)(N)[C@H](O)[C@H](C)O2)Oc2ccc(cc2Cl)[C@H]1O [vancomycin],"ELISA readout of probe incorporation (absorbance, OD450) with versus without antibiotic",can discriminate between S. aureus+/−vancomycin
